From patent publication US10308959B2, “Methods, systems, and compositions relating to MiRNA-146a” (Henry Ford Health System, priority 2013, dated 2019)

Assays:
[1] = system: mouse OPC cell line-N20.1; test: QrtPCR of mRNA (MBP, p38MAPK) in N20.1 cells; assay type: cell-based; details: in the presence of polymyxin B (50 μg/ml); 50 and 100 ng/ml, 4 days
Procedure: The mouse primary cultures of OPCs were conditionally immortalized by transformation with a temperature-sensitive large T-antigen into a mouse OPC cell line-N20.1 (21). N20.1 cells were provided by Dr. Anthony Campagnoni (University of California at Los Angeles). N20.1 cells were grown and maintained in Dulbecco's modified Eagle's medium (“DMEM”)/F12 with 1% fetal bovine serum (“FBS”) and G418 (100 μg/ml) at 37° C. For N20.1 cells, transient transfections were performed with Nucleofector kit according to the manufacturer's protocol (Amaxa, Germany). The cells (10^6) were mixed with 1 μg plasmid DNA or 100 pmol of siRNA/oligo nucleotides and pulsed according to the manufacturer's instruction. The transfected cells were immediately plated into Petri dishes with DMEM containing 1% FBS and incubated at 37° C. for days. Primary rat embryonic OPCs were transiently transfected with Lipofectamine (Invitrogen) overnight, according to the manufacturer's protocol (see Chew et al., J. Neuroscience 30(33): 11011-11027 (2010)). Amounts of DNA and siRNA/oligo nucleotides were used as recommended by the manufacturer. The control plasmid (pcDNA3) was used as a mock transfected control for miR-146a expression vector transfection, and control siRNA (Ambion, a random mixture of oligonucleotides) was used as a mock transfected control for both transfections with Tβ4siRNA and anti-miR-146a inhibitor nucleotides. The cells (10^4 cells/cm^2) were treated with 0, 25, 50, 100 ng/ml of Tβ4 (RegeneRx Biopharmaceuticals Inc., Rockville, Md.). The cells were incubated at 37° C. and fed every 2 days with fresh medium (DMEM containing 1% FBS for N20.1 cells and BDM for primary rat embryonic OPCs) with and without Tβ4 for 4 days. […]
After qrtPCR, agarose gel electrophoresis was performed to verify the quality of the qrtPCR products. No secondary products were detected. […] Values obtained from three independent experiments were analyzed relative to gene expression data using the 2^−ΔΔCT method.

[2] = system: primary rat embryonic OPCs; test: QrtPCR of mRNA (MBP, p38MAPK) in primary rat embryonic OPCs; assay type: cell-based; details: in the presence of polymyxin B (50 μg/ml); 50 and 100 ng/ml, 4 days
Procedure: Primary rat embryonic OPCs were isolated and prepared according to the method known to the skilled artisan. Briefly, on embryonic day 17, rat embryos were removed from a pregnant Wistar rat in a laminar flow hood. The cortices were dissected out by using microdissecting scissors, rinsed twice in Hank's buffered salt solution and dissociated after digesting with 0.01% trypsin and DNase at 37° C. for 15 min. The digested cells were washed twice, filtered through a 70 mm nylon cell strainer and plated with DMEM containing 20% fetal bovine serum (FBS) in poly-D-lysine coated T75 cell culture flasks (approximately 10 million cells per flask). The cells grew to confluence for 10 days and then were placed on the shaker at 200 r.p.m. at 37° C. for 1 h to remove microglial cells. Subsequently, the cells were left on the shaker for an additional 18-20 h to collect OPCs. The collected OPCs were plated in untreated Petri dishes for 1 h to remove contaminated microglia and astrocytes which attach to the Petri dish more efficiently than OPCs. The unattached OPCs were transferred onto poly-D,L-ornithine-coated Petri dishes at a cell density of 10^4 per/cm2 with a basal chemically defined medium (“BDM”) containing 10 ng/ml platelet-derived growth factor-alpha (“PDGF-AA”) and 10 ng/ml basic fibroblast growth factor (“bFGF”) for 7-10 days.
The mouse primary cultures of OPCs were conditionally immortalized by transformation with a temperature-sensitive large T-antigen into a mouse OPC cell line-N20.1 (21). N20.1 cells were provided by Dr. Anthony Campagnoni (University of California at Los Angeles). N20.1 cells were grown and maintained in Dulbecco's modified Eagle's medium (“DMEM”)/F12 with 1% fetal bovine serum (“FBS”) and G418 (100 μg/ml) at 37° C. For N20.1 cells, transient transfections were performed with Nucleofector kit according to the manufacturer's protocol (Amaxa, Germany). The cells (10^6) were mixed with 1 μg plasmid DNA or 100 pmol of siRNA/oligo nucleotides and pulsed according to the manufacturer's instruction. […]

boiled denatured Tβ4: Tβ4 (100 ng/ml) boiled for 10 minutes to denature the protein, used as a negative control (SDKPDMAEIEKFDKSKLKKTETQEKNPLPSKETIEQEKQAGES; heat-denatured; UniProt P62328 2-44, looked up) [reference compound]
expression of MBP, mRNA and protein levels [1]: no effect
expression of MBP, mRNA and protein levels [2]: no effect
